Source: PubChem BioAssay AID977620 (Broad Institute, 2014)
Active and inactive are the calls of the source.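 Rule for the calls: active = signal-lowering curve whose fitted AC50 is at or under twice the top valid dose of that sample; inconclusive = flat fit with a moderate drop, or a poor fit; inactive = the rest.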

Assays:
[1] = viability loss in A549 lung cancer cells – cell-based, CellTiter-Glo luminescence, dry powder, set 14, cytotoxicity control, dose response (AID 977620); conditions: A549 viability, CellTiter-Glo ATP luminescence, 72 h; at 30 µM (top of the series)
[2] = tested on: A549 viability, CellTiter-Glo ATP luminescence, 72 h; test: as above

CN(C)S(=O)(=O)c1ccc(N2CCCC2)c(C(=O)Nc2ccccc2Cl)c1
activity change, negative = cytotoxicity [1]: -2.95% (inactive)

CN(C)S(=O)(=O)c1ccc(N2CCCC2)c(C(=O)N2CCOCC2)c1
activity change, negative = cytotoxicity [1]: -6.88% (inactive)

Cc1nnc(NC(=O)c2cc(S(=O)(=O)N(C)C)ccc2N2CCCC2)s1
activity change, negative = cytotoxicity [1]: -7.41% (inactive)

Cc1cnc(NC(=O)c2cc(S(=O)(=O)N(C)C)ccc2N2CCNCC2)s1
activity change, negative = cytotoxicity [1]: -10.1% (inactive)

CN(C)S(=O)(=O)c1ccc(N2CCCC2)c(C(=O)Nc2cccc(F)c2)c1
activity change, negative = cytotoxicity [1]: -13.3% (inactive)

Cc1ccc(NC(=O)c2cc(S(=O)(=O)N(C)C)ccc2N2CCCC2)cc1
AC50 [2]: > 60 µM (inactive)

Cc1cnc(NC(=O)c2cc(S(=O)(=O)N(C)c3ccccc3)ccc2N2CCCC2)s1
activity change, negative = cytotoxicity [1]: 0.919% (inactive)

CN(C)S(=O)(=O)c1ccc(N2CCCC2)c(C(=O)Nc2ccncc2)c1
activity change, negative = cytotoxicity [1]: -5.75% (inactive)

CN(C)CCCN(Cc1cc2ccccc2[nH]c1=O)C(=O)NCc1ccccc1
activity change, negative = cytotoxicity [1]: -11.2% (inactive)

Cc1cnc(NC(=O)c2cccc(S(=O)(=O)N(C)C)c2)s1
activity change, negative = cytotoxicity [1]: 3.41% (inactive)

CN(C)S(=O)(=O)c1ccc(N2CCCC2)c(C(=O)Nc2nccs2)c1
AC50 [2]: > 60 µM (inactive)

Cc1cnc(NC(=O)c2cc(S(=O)(=O)N(CC(C)C)CC(C)C)ccc2N2CCCC2)s1
AC50 [2]: > 60 µM (inactive)

CN(C)S(=O)(=O)c1ccc(N2CCCC2)c(C(=O)Nc2cccnc2)c1
activity change, negative = cytotoxicity [1]: -10% (inactive)

CCN(CC)c1ccc(S(=O)(=O)N(C)C)cc1C(=O)Nc1ncc(C)s1
AC50 [2]: > 60 µM (inactive)

COc1cccc2sc(NC(=O)c3cc(S(=O)(=O)N(C)C)ccc3N3CCCC3)nc12
activity change, negative = cytotoxicity [1]: -3.6% (inactive)

Cc1cnc(NC(=O)c2cc(S(=O)(=O)N3CCOCC3)ccc2N2CCCC2)s1
AC50 [2]: 23.3 µM

COc1ccc(NC(=O)c2cc(S(=O)(=O)N(C)C)ccc2N2CCCC2)cc1
activity change, negative = cytotoxicity [1]: -10.6% (inactive)

CN(C)S(=O)(=O)c1ccc(N2CCCC2)c(C(=O)Nc2ccccc2)c1
AC50 [2]: > 60 µM (inactive)

Cc1cnc(NC(=O)c2cc(S(=O)(=O)N3CCCCC3)ccc2N2CCCC2)s1
AC50 [2]: > 60 µM (inactive)

CN(C)CCCN(Cc1cc2ccccc2[nH]c1=O)C(=O)Nc1ccccc1
activity change, negative = cytotoxicity [1]: -3.6% (inactive)

Cc1cnc(NC(=O)c2cc(S(=O)(=O)N(C)C)ccc2N(C)C)s1
activity change, negative = cytotoxicity [1]: -11.3% (inactive)

Cc1ccccc1NC(=O)c1cc(S(=O)(=O)N(C)C)ccc1N1CCCC1
activity change, negative = cytotoxicity [1]: -11.9% (inactive)

COc1ccccc1NC(=O)c1cc(S(=O)(=O)N(C)C)ccc1N1CCCC1
activity change, negative = cytotoxicity [1]: -6.88% (inactive)

Cc1cnc(NC(=O)c2cc(S(=O)(=O)NCc3ccccc3)ccc2N2CCCC2)s1
activity change, negative = cytotoxicity [1]: -16.4% (inactive)

COc1ccc2sc(NC(=O)c3cc(S(=O)(=O)N(C)C)ccc3N3CCCC3)nc2c1
AC50 [2]: > 60 µM (inactive)

CN(C)S(=O)(=O)c1ccc(N2CCCC2)c(C(=O)NC2CCCCC2)c1
activity change, negative = cytotoxicity [1]: -6.42% (inactive)

Cc1cnc(NC(=O)c2cc(S(=O)(=O)N3CCNCC3)ccc2N2CCCC2)s1
AC50 [2]: > 60 µM (inactive)

Cc1cnc(NC(=O)c2cc(S(=O)(=O)N(C)C)ccc2N2CCCCC2)s1
AC50 [2]: > 60 µM (inactive)

CN(C)S(=O)(=O)c1ccc(N2CCCC2)c(C(=O)Nc2nc3ccccc3s2)c1
AC50 [2]: 25.9 µM

COc1ccc2nc(NC(=O)c3cc(S(=O)(=O)N(C)C)ccc3N3CCCC3)sc2c1
activity change, negative = cytotoxicity [1]: -22.2% (inactive)

Cc1nc(NC(=O)c2cc(S(=O)(=O)N(C)C)ccc2N2CCCC2)n[nH]1
activity change, negative = cytotoxicity [1]: -5.15% (inactive)

CN(C)S(=O)(=O)c1ccc(N2CCCC2)c(C(=O)Nc2ccc(Br)cc2)c1
AC50 [2]: > 60 µM (inactive)

CN(C)C(=O)c1cc(S(=O)(=O)N(C)C)ccc1N1CCCC1
activity change, negative = cytotoxicity [1]: -2.1% (inactive)

Cc1cnc(NC(=O)c2cc(S(=O)(=O)N(C)C)ccc2N2CCC2)s1
AC50 [2]: > 60 µM (inactive)

Cc1cnc(NC(=O)c2cc(S(=O)(=O)N(C)C)ccc2C2CCCC2)s1
AC50 [2]: > 60 µM (inactive)

CCN(CC)S(=O)(=O)c1ccc(N2CCCC2)c(C(=O)Nc2ncc(C)s2)c1
AC50 [2]: > 60 µM (inactive)
